In patent US20200038513A1, “MODULATORS OF FAK PROTEOLYSIS AND ASSOCIATED METHODS OF USE” (ARVINAS OPERATIONS, INC., priority 2018, published 2020):

Test system: MDA-MB-231 cells
Test: RPPA (reverse phase protein array)
Assay type: cell-based, human
Procedure: RPPA analysis was performed by MD Anderson Cancer Center RPPA core facility.
Examination of the Molecular Signaling Events) and/or Downstream Pathways Responsible for the Migration and Invasion Effects Observed by Exemplary Compound Treatment. To pinpoint these observations to a molecular signaling event or specific downstream pathway, reverse phase protein array (RPPA) analysis was performed (Table 4).

Structure (SMILES): CNC(=O)c1ccc(Nc2ncc(C(F)(F)F)c(NCc3nccnc3N(C)S(C)(=O)=O)n2)cc1 [Defactinib, defactinib, reference compound]
- rel. Protein level, Merlin (1000nM): 99.3%
- rel. Protein level, Mnk1 (1000nM): 97.5%
- rel. Protein level, Myosin-11 (1000nM): 100.9%
- rel. Protein level, Myosin-IIa_pS1943 (1000nM): 108.6%
- rel. Protein level, Myt1 (1000nM): 94.5%
- rel. Protein level, N-Cadherin (1000nM): 107.8%
- rel. Protein level, N-Ras (1000nM): 93.7%
- rel. Protein level, NAPSIN-A (1000nM): 99.4%
- rel. Protein level, NDRG1_pT346 (1000nM): 103.5%
- rel. Protein level, NDUFB4 (1000nM): 96.3%
- rel. Protein level, NF-kB-p65_pS536 (1000nM): 105.0%
- rel. Protein level, Notch1 (1000nM): 96.2%
- rel. Protein level, Notch3 (1000nM): 105.9%
- rel. Protein level, Oct-4 (1000nM): 100.5%
- rel. Protein level, P-Cadherin (1000nM): 104.3%
- rel. Protein level, PAI-1 (1000nM): 106.1%
- rel. Protein level, PAICS (1000nM): 98.7%
- rel. Protein level, PAK1 (1000nM): 107.0%
- rel. Protein level, PAK4 (1000nM): 95.5%
- rel. Protein level, PAR (1000nM): 135.9%
- rel. Protein level, PARP (1000nM): 98.0%
- rel. Protein level, PCNA (1000nM): 88.7%
- rel. Protein level, PD-1 (1000nM): 107.0%
- rel. Protein level, PD-L1 (1000nM): 92.6%
- rel. Protein level, PDGFR-b (1000nM): 138.5%
- rel. Protein level, PDHK1 (1000nM): 102.5%
- rel. Protein level, PDK1 (1000nM): 99.8%
- rel. Protein level, PDK1_pS241 (1000nM): 97.4%
- rel. Protein level, PEA-15 (1000nM): 98.7%
- rel. Protein level, PEA-15_pS116 (1000nM): 97.0%
- rel. Protein level, PI3K-p85 (1000nM): 100.0%
- rel. Protein level, PI3K-p110-a (1000nM): 103.7%
- rel. Protein level, PI3K-p110-b (1000nM): 98.5%
- rel. Protein level, PKA-a (1000nM): 99.6%
- rel. Protein level, PKC-b-II_pS660 (1000nM): 98.6%
- rel. Protein level, PKC-delta_pS664 (1000nM): 100.9%
- rel. Protein level, PKCa (1000nM): 110.1%
- rel. Protein level, PKM2 (1000nM): 106.2%
- rel. Protein level, PLC-gamma2_pY759 (1000nM): 97.2%
- rel. Protein level, PLK1 (1000nM): 82.1%
- rel. Protein level, PMS2 (1000nM): 98.6%
- rel. Protein level, PR (1000nM): 100.3%
- rel. Protein level, PRAS40 (1000nM): 98.3%
- rel. Protein level, PRAS40_pT246 (1000nM): 90.7%
- rel. Protein level, PREX1 (1000nM): 105.2%
- rel. Protein level, PTEN (1000nM): 108.6%
- rel. Protein level, Paxillin (1000nM): 105.5%
- rel. Protein level, Pdcd4 (1000nM): 117.5%
- rel. Protein level, Porin (1000nM): 95.2%
- rel. Protein level, RBM15 (1000nM): 103.9%
- rel. Protein level, RIP (1000nM): 103.7%
- rel. Protein level, RPA32 (1000nM): 96.8%
- rel. Protein level, RPA32_pS4-S8 (1000nM): 93.9%
- rel. Protein level, RSK (1000nM): 104.4%
- rel. Protein level, Rab11 (1000nM): 101.7%
- rel. Protein level, Rab25 (1000nM): 97.8%
- rel. Protein level, Rad50 (1000nM): 104.7%
- rel. Protein level, Rad51 (1000nM): 102.1%
- rel. Protein level, Raptor (1000nM): 98.9%
- rel. Protein level, Rb (1000nM): 93.9%
- rel. Protein level, Rb_pS807_S811 (1000nM): 84.3%
- rel. Protein level, Rheb (1000nM): 91.7%
- rel. Protein level, Rictor (1000nM): 111.8%
- rel. Protein level, Rictor_pT1135 (1000nM): 90.0%
- rel. Protein level, S6 (1000nM): 102.7%
- rel. Protein level, S6_pS235_S236 (1000nM): 50.9%
- rel. Protein level, S6_pS240_S244 (1000nM): 49.1%
- rel. Protein level, b-Actin (1000nM): 101.1%
- rel. Protein level, b-Catenin (1000nM): 100.0%
- rel. Protein level, b-Catenin_pT41_S45 (1000nM): 98.3%
- rel. Protein level, c-Abl (1000nM): 109.1%
- rel. Protein level, c-IAP2 (1000nM): 94.3%
- rel. Protein level, c-Jun_pS73 (1000nM): 92.7%
- rel. Protein level, c-Kit (1000nM): 101.5%
- rel. Protein level, c-Met_pY1234_Y1235 (1000nM): 98.9%
- rel. Protein level, c-Myc (1000nM): 95.9%
- rel. Protein level, cdc2_pY15 (1000nM): 90.1%
- rel. Protein level, cdc25C (1000nM): 98.2%
- rel. Protein level, eEF2 (1000nM): 94.8%
- rel. Protein level, eEF2K (1000nM): 116.4%
- rel. Protein level, eIF4E (1000nM): 105.5%
- rel. Protein level, eIF4E_pS209 (1000nM): 95.7%
- rel. Protein level, eIF4G (1000nM): 95.8%
- rel. Protein level, mTOR (1000nM): 92.1%
- rel. Protein level, mTOR_pS2448 (1000nM): 88.3%
- rel. Protein level, p21 (1000nM): 100.5%
- rel. Protein level, p27-Kip-1 (1000nM): 96.7%
- rel. Protein level, p27_pT198 (1000nM): 96.4%
- rel. Protein level, p38-MAPK (1000nM): 94.3%
- rel. Protein level, p38_pT180_Y182 (1000nM): 100.6%
- rel. Protein level, p44-42-MAPK (1000nM): 108.2%
- rel. Protein level, p53 (1000nM): 93.7%
- rel. Protein level, p70-S6K1 (1000nM): 111.0%
- rel. Protein level, p70-S6K_pT389 (1000nM): 95.5%
- rel. Protein level, p90RSK_pT573 (1000nM): 98.9%
- rel. Protein level [%], SCD (antibody SCD, 1000nM, n = 2): 98.9%
- rel. Protein level [%], SDHA (antibody SDHA, 1000nM, n = 2): 103.8%
- rel. Protein level [%], SF2 (antibody SF2, 1000nM, n = 2): 95.8%
- rel. Protein level [%], SHP-2_pY542 (antibody SHP-2_pY542, 1000nM, n = 2): 97.2%
- rel. Protein level [%], SLC1A5 (antibody SLC1A5, 1000nM, n = 2): 111.6%
- rel. Protein level [%], SOD1- (antibody SOD1-, 1000nM, n = 2): 97.7%
- rel. Protein level [%], SOD2 (antibody SOD2, 1000nM, n = 2): 106.0%
- rel. Protein level [%], STING (antibody STING, 1000nM, n = 2): 135.4%
- rel. Protein level [%], Shc_pY317 (antibody Shc_pY317, 1000nM, n = 2): 104.3%
- rel. Protein level [%], Slfn11 (antibody Slfn11, 1000nM, n = 2): 95.9%
- rel. Protein level [%], Smac (antibody Smac, 1000nM, n = 2): 99.9%
- rel. Protein level [%], Smad1 (antibody Smad1, 1000nM, n = 2): 97.8%
- rel. Protein level [%], Smad3 (antibody Smad3, 1000nM, n = 2): 102.3%
- rel. Protein level [%], Smad4 (antibody Smad4, 1000nM, n = 2): 95.2%
- rel. Protein level [%], Snail (antibody Snail, 1000nM, n = 2): 101.3%
- rel. Protein level [%], Sox2 (antibody Sox2, 1000nM, n = 2): 100.5%
- rel. Protein level [%], Src (antibody Src, 1000nM, n = 2): 103.9%
- rel. Protein level [%], Src_pY419 (antibody Src_pY419, 1000nM, n = 2): 99.6%
- rel. Protein level [%], Src_pY527 (antibody Src_pY527, 1000nM, n = 2): 93.7%
- rel. Protein level [%], Stat3 (antibody Stat3, 1000nM, n = 2): 92.9%
- rel. Protein level [%], Stat3_pY705 (antibody Stat3_pY705, 1000nM, n = 2): 100.5%
- rel. Protein level [%], Stat5a (antibody Stat5a, 1000nM, n = 2): 108.2%
- rel. Protein level [%], Stathmin-1 (antibody Stathmin-1, 1000nM, n = 2): 99.3%
- rel. Protein level [%], Syk (antibody Syk, 1000nM, n = 2): 95.8%
- rel. Protein level [%], TAZ (antibody TAZ, 1000nM, n = 2): 100.5%
- rel. Protein level [%], TFAM (antibody TFAM, 1000nM, n = 2): 101.4%
- rel. Protein level [%], TFRC (antibody TFRC, 1000nM, n = 2): 96.3%
- rel. Protein level [%], TIGAR (antibody TIGAR, 1000nM, n = 2): 100.5%
- rel. Protein level [%], TRIM25 (antibody TRIM25, 1000nM, n = 2): 99.8%
- rel. Protein level [%], TSC1 (antibody TSC1, 1000nM, n = 2): 102.5%
- rel. Protein level [%], TTF1 (antibody TTF1, 1000nM, n = 2): 95.4%
- rel. Protein level [%], TUFM (antibody TUFM, 1000nM, n = 2): 98.4%
- rel. Protein level [%], TWIST (antibody TWIST, 1000nM, n = 2): 97.7%
- rel. Protein level [%], Tau (antibody Tau, 1000nM, n = 2): 102.9%
- rel. Protein level [%], Transglutaminase (antibody Transglutaminase, 1000nM, n = 2): 93.5%
- rel. Protein level [%], Tuberin (antibody Tuberin, 1000nM, n = 2): 101.7%
- rel. Protein level [%], Tuberin_pT1462 (antibody Tuberin_pT1462, 1000nM, n = 2): 93.6%
- rel. Protein level [%], Tyro3 (antibody Tyro3, 1000nM, n = 2): 98.5%
- rel. Protein level [%], U-Histone-H2B (antibody U-Histone-H2B, 1000nM, n = 2): 113.8%
- rel. Protein level [%], UBAC1 (antibody UBAC1, 1000nM, n = 2): 99.7%
- rel. Protein level [%], UGT1A (antibody UGT1A, 1000nM, n = 2): 98.6%
- rel. Protein level [%], ULK1_pS757 (antibody ULK1_pS757, 1000nM, n = 2): 102.1%
- rel. Protein level [%], VASP (antibody VASP, 1000nM, n = 2): 100.5%
- rel. Protein level [%], VEGFR-2 (antibody VEGFR-2, 1000nM, n = 2): 93.5%
- rel. Protein level [%], VHL-EPPK1 (antibody VHL-EPPK1, 1000nM, n = 2): 88.7%
- rel. Protein level [%], WIPI1 (antibody WIPI1, 1000nM, n = 2): 102.3%
- rel. Protein level [%], WIPI2 (antibody WIPI2, 1000nM, n = 2): 106.2%
- rel. Protein level [%], Wee1 (antibody Wee1, 1000nM, n = 2): 95.3%
- rel. Protein level [%], Wee1_pS642 (antibody Wee1_pS642, 1000nM, n = 2): 95.2%
- rel. Protein level [%], XBP-1 (antibody XBP-1, 1000nM, n = 2): 89.5%
- rel. Protein level [%], XPA (antibody XPA, 1000nM, n = 2): 83.5%
- rel. Protein level [%], XPF (antibody XPF, 1000nM, n = 2): 100.5%
- rel. Protein level [%], XRCC1 (antibody XRCC1, 1000nM, n = 2): 102.3%
- rel. Protein level [%], YAP (antibody YAP, 1000nM, n = 2): 93.7%
- rel. Protein level [%], YAP_pS127 (antibody YAP_pS127, 1000nM, n = 2): 103.1%
- rel. Protein level [%], YB1_pS102 (antibody YB1_pS102, 1000nM, n = 2): 82.7%
- rel. Protein level [%], ZAP-70 (antibody ZAP-70, 1000nM, n = 2): 95.1%
